Laboratory results reported in patent US20230126361A1, “METHODS OF CONTROLLING OR PREVENTING INFESTATION OF PLANTS BY THE PHYTOPATHOGENIC MICROORGANISM CORYNESPORA CASSIICOLA, […] AND/OR […]” (SYNGENTA CROP PROTECTION AG, priority 2020, published 2023).

Assays:
Assay type in all cases: cell-based
Details in all cases: PDB, 24° C., 3-4 days, 620 nm
Corynespora cassiicola = Corynespora cassiicola (target leaf spot) liquid culture growth inhibition
Experimental: Conidia of the fungus from cryogenic storage were directly mixed into nutrient broth (PDB potato dextrose broth). A DMSO solution of the test compounds was placed into a microtiter plate (96-well format) and the nutrient broth containing the fungal spores was added to it. The test plates were incubated at 24° C. and the inhibition of growth (% control of Corynespora cassiicola) was determined photometrically after 3-4 days at 620 nm. The activity of a compound is derived by comparing the inhibition of growth in the treated test solution to the growth in the untreated check. […]

Cercospora sojina = Cercospora sojina (frogeye leaf spot) liquid culture growth inhibition
Experimental: (§1) Conidia of the fungus from cryogenic storage were directly mixed into nutrient broth (PDB potato dextrose broth). A DMSO solution of the test compounds was placed into a microtiter plate (96-well format) and the nutrient broth containing the fungal spores was added to it. The test plates were incubated at 24° C. and the inhibition of growth was determined photometrically after 3-4 days at 620 nm.

Cercospora kikuchii = Cercospora kikuchii (leaf blight) liquid culture growth inhibition
Experimental: as §1

## Cc1nc2c(F)c(F)ccc2cc1Oc1cccc(F)c1C(C)(C)O [2-[2-(7,8-difluoro-2-methylquinolin-3-yloxy)-6-fluorophenyl]propan-2-ol]
Corynespora cassiicola; 0.027 ppm
  % control of Corynespora cassiicola: at least 20%
Corynespora cassiicola; 0.25 ppm
  % control of Corynespora cassiicola: at least 20%
Corynespora cassiicola; 0.74 ppm
  % control of Corynespora cassiicola: at least 50%
Corynespora cassiicola; 2.2 ppm
  % control of Corynespora cassiicola: at least 70%
Corynespora cassiicola; 6.7 ppm
  % control of Corynespora cassiicola: at least 90%
Cercospora sojina; 0.25 ppm
  % control of Cercospora sojina: at least 20%
Cercospora sojina; 0.74 ppm
  % control of Cercospora sojina: at least 20%
Cercospora sojina; 2.2 ppm
  % control of Cercospora sojina: at least 50%
Cercospora sojina; 6.7 ppm
  % control of Cercospora sojina: at least 50%
Cercospora kikuchii; 0.74 ppm
  % control (Example 3: Cercospora kikuchii): at least 20%
Cercospora kikuchii; 2.2 ppm
  % control of Cercospora kikuchii: at least 50%
Cercospora kikuchii; 6.7 ppm
  % control of Cercospora kikuchii: at least 50%
